US8796256B2 (Janssen Pharmaceutica NV, priority 2010, dated 2014)

Each molecule was assayed against T1, ERR1 (also known as ERR-α or ERR-1) (Homo sapiens, UniProt P11474) (assay: TR-FRET assay (disruption of co-activator peptide binding to ERR1 LBD)). Conditions: 6 nM 6His-ERR1LBD, 6 nM GST-SRC-2 peptide; average of 3 independent experiments.
T1 sequence (P11474 193-421 limits assumed): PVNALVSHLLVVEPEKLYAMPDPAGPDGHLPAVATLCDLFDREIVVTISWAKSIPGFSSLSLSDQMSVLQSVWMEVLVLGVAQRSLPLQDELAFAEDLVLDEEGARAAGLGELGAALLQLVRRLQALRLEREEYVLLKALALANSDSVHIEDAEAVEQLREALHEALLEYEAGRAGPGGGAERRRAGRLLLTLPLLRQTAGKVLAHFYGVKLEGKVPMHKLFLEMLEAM
Assay type: biochemical
Procedure, shortened: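 Homogeneous TR-FRET measuring displacement of GST-hSRC2 co-activator peptide (6 nM) from His-tagged ERR1 LBD (6 nM), detected with α-GST Eu cryptate (30 nM) and α-His-XL665 (7.5 nM). Buffer 25 mM Tris pH 8, 2.5 mM Hepes, 20 mM KCl, 1 mM DTT, 0.05 mg/mL delipidated BSA; equilibration 4-18 h at 25° C. Hyperbolic dose-response fit, mean of 3 experiments.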

Row | SMILES | EC50 [nM]
1 | O=C1S/C(=C\c2ccc3c(ccn3Cc3ccc(F)cc3C(F)(F)F)c2)C(=O)N1CCN1CCOCC1 [Compound 249, (5Z)-5-[(1-{[4-Fluoro-2-(trifluoromethyl)phenyl]methyl}-1H-indol-5-yl)methylidene]-3-(2-morpholin-4-ylethyl)-1,3-thiazolidine-2,4-dione] | 350
2 | O=C1S/C(=C\c2ccc3c(cnn3Cc3ccc(C(F)(F)F)cc3C(F)(F)F)c2)C(=O)N1CCN1CCCC1 [Compound 84, (5Z)-5-({1-[2,4-Bis(trifluoromethyl)benzyl]-1H-indazol-5-yl}methylidene)-3-(2-pyrrolidin-1-ylethyl)-1,3-thiazolidine-2,4-dione] | 580
3 | COc1ccc(Cn2ncc3cc(/C=C4\SC(=O)N(CCN5CC[C@@H](F)C5)C4=O)ccc32)c(C(F)(F)F)c1 [Compound 13, (5Z)-3-{2-[(3R)-3-Fluoropyrrolidin-1-yl]ethyl}-5-[(1-{[4-(methyloxy)-2-(trifluoromethyl)phenyl]methyl}-1H-indazol-5-yl)methylidene]-1,3-thiazolidine-2,4-dione] | 43
4 | O=C1S/C(=C\c2ccc3c(cnn3Cc3ccc(Cl)cc3C(F)(F)F)c2)C(=O)N1CC1CNC1 [Compound 101, (5Z)-3-(Azetidin-3-ylmethyl)-5-({1-[4-chloro-2-(trifluoromethyl)benzyl]-1H-indazol-5-yl}methylidene)-1,3-thiazolidine-2,4-dione] | 68
5 | O=C1S/C(=C\c2ccc3c(cnn3Cc3ccc(Cl)cc3C(F)(F)F)c2)C(=O)N1C1CN2CCC1CC2 (centres unmarked) [Compound 112, (5Z)-3-(1-Azabicyclo[2.2.2]oct-3-yl)-5-({1-[4-chloro-2-(trifluoromethyl)benzyl]-1H-indazol-5-yl}methylidene)-1,3-thiazolidine-2,4-dione] | 22
6 | O=C1S/C(=C\c2ccc3c(cnn3Cc3ccc(Cl)cc3C(F)(F)F)c2)C(=O)N1CCN1C[C@@H]2C[C@H]1CN2 [Compound 78, (5Z)-5-({1-[4-Chloro-2-(trifluoromethyl)benzyl]-1H-indazol-5-yl}methylidene)-3-[2-(1S,4S)-(2,5-diazabicyclo[2.2.1]hept-2-yl)ethyl]-1,3-thiazolidine-2,4-dione] | 41
7 | CN1CCN(N2C(=O)S/C(=C\c3ccc4c(cnn4Cc4ccc(C(F)(F)F)cc4C(F)(F)F)c3)C2=O)CC1 [Compound 350, (5Z)-5-({1-[2,4-Bis(trifluoromethyl)benzyl]-1H-indazol-5-yl}methylidene)-3-(4-methylpiperazin-1-yl)-1,3-thiazolidine-2,4-dione] | 38
8 | O=C(O)CN1C(=O)S/C(=C\c2ccc3c(c2)c(-c2ccc(F)cc2)nn3Cc2ccc(Cl)cc2C(F)(F)F)C1=O [Compound 408, [(5Z)-5-({1-[4-Chloro-2-(trifluoromethyl)benzyl]-3-(4-fluorophenyl)-1H-indazol-5-yl}methylidene)-2,4-dioxo-1,3-thiazolidin-3-yl]acetic acid] | 153
9 | CCOC(=O)[C@@H]1CCC[C@H]1N1C(=O)S/C(=C\c2ccc3c(cnn3Cc3ccc(Cl)cc3C(F)(F)F)c2)C1=O [Compound 141, Ethyl (1R,2R)-2-[(5Z)-5-({1-[4-chloro-2-(trifluoromethyl)benzyl]-1H-indazol-5-yl}methylidene)-2,4-dioxo-1,3-thiazolidin-3-yl]cyclopentanecarboxylate] | 183
10 | O=C1S/C(=C\c2ccc3c(cnn3Cc3ccc(Cl)cc3C(F)(F)F)c2)C(=O)N1CCN1CCNS1(=O)=O [Compound 337, (5Z)-5-({1-[4-Chloro-2-(trifluoromethyl)benzyl]-1H-indazol-5-yl}methylidene)-3-[2-(1,1-dioxido-1,2,5-thiadiazolidin-2-yl)ethyl]-1,3-thiazolidine-2,4-dione] | 47
11 | O=C1S/C(=C\c2ccc3c(cnn3Cc3ccc(Cl)cc3C(F)(F)F)c2)C(=O)N1CCN1CCC(C(O)CO)CC1 (centres unmarked) [Compound 283, (5Z)-5-({1-[4-Chloro-2-(trifluoromethyl)benzyl]-1H-indazol-5-yl}methylidene)-3-{2-[4-(1,2-dihydroxyethyl)piperidin-1-yl]ethyl}-1,3-thiazolidine-2,4-dione] | 527
12 | O=C1S/C(=C\c2ccc3c(ccn3Cc3ccc(Cl)cc3C(F)(F)F)c2)C(=O)N1C[C@H]1COCCN1 [Compound 256, (5Z)-5-({1-[4-Chloro-2-(trifluoromethyl)benzyl]-1H-indol-5-yl}methylidene)-3-[(3S)-morpholin-3-ylmethyl]-1,3-thiazolidine-2,4-dione] | 110
13 | CCN1CCC(F)(CN2C(=O)S/C(=C\c3ccc4c(cnn4Cc4ccc(Cl)cc4C(F)(F)F)c3)C2=O)CC1 [Compound 306, (5Z)-5-({1-[4-Chloro-2-(trifluoromethyl)benzyl]-1H-indazol-5-yl}methylidene)-3-[(1-ethyl-4-fluoropiperidin-4-yl)methyl]-1,3-thiazolidine-2,4-dione] | 71
14 | CN1CCN(CCCN2C(=O)S/C(=C\c3ccc4c(ccn4Cc4ccc(Cl)cc4C(F)(F)F)c3)C2=O)CC1 [Compound 245, (5Z)-5-[(1-{[4-Chloro-2-(trifluoromethyl)phenyl]methyl}-1H-indol-5-yl)methylidene]-3-[3-(4-methylpiperazin-1-yl)propyl]-1,3-thiazolidine-2,4-dione] | 50
15 | CN1CCC(CN2C(=O)S/C(=C\c3ccc4c(cnn4Cc4ccc(Cl)cc4C(F)(F)F)c3)C2=O)CC1 [Compound 134, (5Z)-5-({1-[4-Chloro-2-(trifluoromethyl)benzyl]-1H-indazol-5-yl}methylidene)-3-[(1-methylpiperidin-4-yl)methyl]-1,3-thiazolidine-2,4-dione] | 45
16 | COC1CCN(S(=O)(=O)NC(=O)CN2C(=O)S/C(=C\c3ccc4c(cnn4Cc4ccc(Cl)cc4C(F)(F)F)c3)C2=O)CC1 [Compound 58, 2-[(5Z)-5-({1-[4-chloro-2-(trifluoromethyl)benzyl]-1H-indazol-5-yl}methylidene)-2,4-dioxo-1,3-thiazolidin-3-yl]-N-[(4-methoxypiperidin-1-yl)sulfonyl]acetamide] | 44
17 | CN1CCC(N2C(=O)S/C(=C\c3ccc4c(cnn4Cc4ccc(Cl)cc4C(F)(F)F)c3)C2=O)C(=O)C1 (centres unmarked) [Compound 342, (5Z)-5-({1-[4-Chloro-2-(trifluoromethyl)benzyl]-1H-indazol-5-yl}methylidene)-3-(1-methyl-3-oxopiperidin-4-yl)-1,3-thiazolidine-2,4-dione] | 65

Further lines, results first:

Row | EC50 [nM] | SMILES
18 | 9 | Cc1nn(Cc2ccc(Cl)cc2C(F)(F)F)c2ccc(/C=C3\SC(=O)N(CCN4CCCC4)C3=O)cc12 [Compound 41, (5Z)-5-({1-[4-Chloro-2-(trifluoromethyl)benzyl]-3-methyl-1H-indazol-5-yl}methylidene)-3-(2-pyrrolidin-1-ylethyl)-1,3-thiazolidine-2,4-dione]
19 | 19 | CN1C[C@H](O)C[C@H]1CN1C(=O)S/C(=C\c2ccc3c(cnn3Cc3ccc(Cl)cc3C(F)(F)F)c2)C1=O [Compound 191, (5Z)-5-({1-[4-Chloro-2-(trifluoromethyl)benzyl]-1H-indazol-5-yl}methylidene)-3-{[(2S,4R)-4-hydroxy-1-methylpyrrolidin-2-yl]methyl}-1,3-thiazolidine-2,4-dione]
20 | 14 | O=C1S/C(=C\c2ccc3c(cnn3Cc3ccc(C(F)(F)F)cc3C(F)(F)F)c2)C(=O)N1[C@@H]1CNCC[C@@H]1F (relative stereo) [Compound 200, (5Z)-5-({1-[2,4-Bis(trifluoromethyl)benzyl]-1H-indazol-5-yl}methylidene)-3-(cis-4-fluoropiperidin-3-yl)-1,3-thiazolidine-2,4-dione]
21 | 24 | O=C1S/C(=C\c2ccc3c(c2)nnn3Cc2ccc(Cl)cc2C(F)(F)F)C(=O)N1Cc1c[nH]nn1 [Compound 262, (5Z)-5-({1-[4-Chloro-2-(trifluoromethyl)benzyl]-1H-benzotriazol-5-yl}methylidene)-3-(1H-1,2,3-triazol-4-ylmethyl)-1,3-thiazolidine-2,4-dione]
22 | 38 | O=C(O)[C@@H]1CCC[C@H]1N1C(=O)S/C(=C\c2ccc3c(cnn3Cc3ccc(Cl)cc3C(F)(F)F)c2)C1=O [Compound 142, (1R,2R)-2-[(5Z)-5-({1-[4-Chloro-2-(trifluoromethyl)benzyl]-1H-indazol-5-yl}methylidene)-2,4-dioxo-1,3-thiazolidin-3-yl]cyclopentanecarboxylic acid]
23 | 24 | CN1C[C@@H](O)[C@H](N2C(=O)S/C(=C\c3ccc4c(cnn4Cc4ccc(Cl)cc4C(F)(F)F)c3)C2=O)C1 (relative stereo) [Compound 318]
24 | 17 | CCNCCN1C(=O)S/C(=C\c2ccc3c(cnn3Cc3ccc(Cl)cc3C(F)(F)F)c2)C1=O [Compound 47, (5Z)-5-({1-[4-Chloro-2-(trifluoromethyl)benzyl]-1H-indazol-5-yl}methylidene)-3-[2-(ethylamino)ethyl]-1,3-thiazolidine-2,4-dione]
25 | 35 | CN(C)CCCN1C(=O)S/C(=C\c2ccc3c(cnn3Cc3ccc(C(F)(F)F)cc3C(F)(F)F)c2)C1=O [Compound 6, (5Z)-5-[(1-{[2,4-Bis(trifluoromethyl)-phenyl]methyl}-1H-indazol-5-yl)methylidene]-3-[3-(dimethylamino)-propyl]-1,3-thiazolidine-2,4-dione]
26 | 2 | O=C(O)C1CCC(N2C(=O)S/C(=C\c3ccc4c(c3)c(Cl)nn4Cc3ccc(Cl)cc3C(F)(F)F)C2=O)CC1 (centres unmarked) [Compound 302, 4-[(5Z)-5-({3-Chloro-1-[4-chloro-2-(trifluoromethyl)benzyl]-1H-indazol-5-yl}methylidene)-2,4-dioxo-1,3-thiazolidin-3-yl] cyclohexanecarboxylic acid]
